# Reference: patent publication US20120239131A1, “METHODS AND APPARATUS FOR TREATMENT OF ANEURYSMAL TISSUE” (Medtronic Vascular, Inc., priority 2011, published 2012)
# “Also recorded” adds a separate entry of the source.
# Legend:
# Assay type in all cases: in vivo, ApoE−/− mice
# Runx3 = assay: Aortic mural gene expression, RT-PCR (TLDA); details: fold change over ApoE−/− control; aorta, 28 days Ang II infusion
# Protocol: (§1) ApoE−/− mice used in this study were divided into different pretreatment groups: 1) Fluvastatin-MF; 2) Doxycycline-MD; 3) Irbesartan-MI; 4) Telmisartan-MT; 5) Control (water) and fed medicated chow or medicated drinking water 1 week prior to pump implantation. AngII (1000 ng·kg^−1 of body weight·min^−1) was infused subcutaneously via Alzet mini-osmotic pumps for 28 days. All mice were maintained on the medicated chow (MI & MT) or medicated drinking water (MF & MD) treatments which were delivered daily for a total of 28 days following pump implantation.
# (§2) In order to determine the effect of the various treatments on the progressive enlargement of the experimental AAAs the mice were followed with high frequency trans-abdominal ultrasound. Maximum aortic diameter was measured and recorded prior to pump implantation and then at 3, 7, 14, 21, and 28 days. All mice were sacrificed 28 days after pump implantation. Aortae were harvested and subjected to either histological analysis (Elastic Masson trichome, MAC2, CD31 and TUNEL staining) and analysis of mural gene expression. Plasma drug concentrations of experimental compounds were quantified on the day of sacrifice using high performance liquid chromatography (HPLC).
# (§3) Total RNA was extracted from homogenized aortas using the Qiazol lysis reagent and RNeasy Lipid Tissue Mini kit. DNAse treatment was included in the procedure. RNA concentration was determined utilizing the Quant iT RNA assay kit. Complimentary deoxyribonucleic acid (cDNA) was synthesized from 1 μg RNA using High reverse cDNA transcription kit. Briefly the reaction tubes containing RNA, reverse transcriptase, buffer, RNAse inhibitor, and nuclease free water were incubated at 25° C. for 10 minutes to allow annealing. Reverse transcription was performed at 37° C. for 120 min, followed by a 5 sec incubation at 85° C. to inactivate the reverse transcriptase enzyme. The cDNA samples were cooled at 4° C. and stored at −80° C. until further use.
# (§4) Real time PCR was performed using a 384-well Taqman low density array (TLDA) card. Each sample specific PCR mix contained 50 ng of total RNA converted to cDNA. The PCR reaction for Taqman assays contained 50 μl Master Mix (Taqman Universal PCR Master Mix,) and 50 ul of cDNA and RNAase free water. Assays were performed to include appropriate controls (no template control). The RT-PCR protocol included an initial step of 50° C. (2 minutes) […], denaturation by a hot start at 95° C. for 10 min, followed by 40 cycles of a 2 step program (denaturation at 95° C. for 15 secs for primer annealing/extension at 60° C. for 1 min). Fluorescence data was collected at 60° C. Fluorescence was quantified with ABI PRISM 7900HT Sequence Detection System. To verify amplification of a specific target cDNA, data generated was analyzed using SDS 2.2.3 software (Sequence Detection System Software, Applied Biosystems). For all amplification plots, the baseline data were set with the automatic CT function available with SDS 2.2.3 calculating the optimal baseline range and threshold value by using the AutoCT algorithm. According to the manufacturer's instruction, a CT value of ≧39 corresponds to nonspecific amplification marking the limits of detection. For endogenous control GAPDH was normalized to B2M. For relative quantification (RQ), pooled ApoE−/− control was used as the calibrator (with expression equal to 1).
# TNF-α = assay: Aortic mural gene expression, RT-PCR (TLDA); details: fold change over ApoE−/− control; aorta, 28 days Ang II infusion
# Protocol: as §1, §2, §3, §4
# CCR5 = assay: Aortic mural gene expression, RT-PCR (TLDA); details: fold change over ApoE−/− control; aorta, 28 days Ang II infusion
# Protocol: as §1, §2, §3, §4
# ITGAL = assay: Aortic mural gene expression, RT-PCR (TLDA); details: fold change over ApoE−/− control; aorta, 28 days Ang II infusion
# Protocol: as §1, §2, §3, §4
# Vav1 = assay: Aortic mural gene expression, RT-PCR (TLDA); details: fold change over ApoE−/− control; aorta, 28 days Ang II infusion
# Protocol: as §1, §2, §3, §4
# IL-7 = assay: Aortic mural gene expression, RT-PCR (TLDA); details: fold change over ApoE−/− control; aorta, 28 days Ang II infusion
# Protocol: as §1, §2, §3, §4
# MMP-8 = assay: Aortic mural gene expression, RT-PCR (TLDA); details: fold change over ApoE−/− control; aorta, 28 days Ang II infusion
# Protocol: as §1, §2, §3, §4
# HMOX 1 = assay: Aortic mural gene expression, RT-PCR (TLDA); details: fold change over ApoE−/− control; aorta, 28 days Ang II infusion
# Protocol: as §1, §2, §3, §4
# Osteopontin = assay: Aortic mural gene expression, RT-PCR (TLDA); details: fold change over ApoE−/− control; aorta, 28 days Ang II infusion
# Protocol: as §1, §2, §3, §4
# Cathepsin B = assay: Aortic mural gene expression, RT-PCR (TLDA); details: fold change over ApoE−/− control; aorta, 28 days Ang II infusion
# Protocol: as §1, §2, §3, §4
# CXCR4 = assay: Aortic mural gene expression, RT-PCR (TLDA); details: fold change over ApoE−/− control; aorta, 28 days Ang II infusion
# Protocol: as §1, §2, §3, §4
# MAPK8 = assay: Aortic mural gene expression, RT-PCR (TLDA); details: fold change over ApoE−/− control; aorta, 28 days Ang II infusion
# Protocol: as §1, §2, §3, §4
# Cybb = assay: Aortic mural gene expression, RT-PCR (TLDA); details: fold change over ApoE−/− control; aorta, 28 days Ang II infusion
# Protocol: as §1, §2, §3, §4
# Rac2 = assay: Aortic mural gene expression, RT-PCR (TLDA); details: fold change over ApoE−/− control; aorta, 28 days Ang II infusion
# Protocol: as §1, §2, §3, §4
# Tgfβ1 = assay: Aortic mural gene expression, RT-PCR (TLDA); details: fold change over ApoE−/− control; aorta, 28 days Ang II infusion
# Protocol: as §1, §2, §3, §4
# CCR2 = assay: Aortic mural gene expression, RT-PCR (TLDA); details: fold change over ApoE−/− control; aorta, 28 days Ang II infusion
# Protocol: as §1, §2, §3, §4
# Fibronectin -1 = assay: Aortic mural gene expression, RT-PCR (TLDA); details: fold change over ApoE−/− control; aorta, 28 days Ang II infusion
# Protocol: as §1, §2, §3, §4
# MMP-12 = assay: Aortic mural gene expression, RT-PCR (TLDA); details: fold change over ApoE−/− control; aorta, 28 days Ang II infusion
# Protocol: as §1, §2, §3, §4
# LOX = assay: Aortic mural gene expression, RT-PCR (TLDA); details: fold change over ApoE−/− control; aorta, 28 days Ang II infusion
# Protocol: as §1, §2, §3, §4
# TIMP2 = assay: Aortic mural gene expression, RT-PCR (TLDA); details: fold change over ApoE−/− control; aorta, 28 days Ang II infusion
# Protocol: as §1, §2, §3, §4
# Cathepsin S = assay: Aortic mural gene expression, RT-PCR (TLDA); details: fold change over ApoE−/− control; aorta, 28 days Ang II infusion
# Protocol: as §1, §2, §3, §4
# CCL2 = assay: Aortic mural gene expression, RT-PCR (TLDA); details: fold change over ApoE−/− control; aorta, 28 days Ang II infusion
# Protocol: as §1, §2, §3, §4
# ITGB2 = assay: Aortic mural gene expression, RT-PCR (TLDA); details: fold change over ApoE−/− control; aorta, 28 days Ang II infusion
# Protocol: as §1, §2, §3, §4
# CSF1 = assay: Aortic mural gene expression, RT-PCR (TLDA); details: fold change over ApoE−/− control; aorta, 28 days Ang II infusion
# Protocol: (§5) Total RNA was extracted from homogenized aortas using the Qiazol lysis reagent and RNeasy Lipid Tissue Mini kit. DNAse treatment was included in the procedure. RNA concentration was determined utilizing the Quant iT RNA assay kit. Complimentary deoxyribonucleic acid (cDNA) was synthesized from 1 μg RNA using High reverse cDNA transcription kit. Briefly the reaction tubes containing RNA, reverse transcriptase, buffer, RNAse inhibitor, and nuclease free water were incubated at 25° C. for 10 minutes to allow annealing. […] The cDNA samples were cooled at 4° C. and stored at −80° C. until further use.
# (§6) Real time PCR was performed using a 384-well Taqman low density array (TLDA) card. Each sample specific PCR mix contained 50 ng of total RNA converted to cDNA. The PCR reaction for Taqman assays contained 50 μl Master Mix (Taqman Universal PCR Master Mix,) and 50 ul of cDNA and RNAase free water. Assays were performed to include appropriate controls (no template control). The RT-PCR protocol included an initial step of 50° C. […] Fluorescence data was collected at 60° C. Fluorescence was quantified with ABI PRISM 7900HT Sequence Detection System. To verify amplification of a specific target cDNA, data generated was analyzed using SDS 2.2.3 software (Sequence Detection System Software, Applied Biosystems). […] For relative quantification (RQ), pooled ApoE−/− control was used as the calibrator (with expression equal to 1).
# NFKb1 = assay: Aortic mural gene expression, RT-PCR (TLDA); details: fold change over ApoE−/− control; aorta, 28 days Ang II infusion
# Protocol: as §5, §6
# [1] = tested on: genes involved in the pathophysiology of AAA; assay: Drug inhibition effect on differentially expressed genes, overall; details: for Total Score: sum of heat map grades over 25 genes, ApoE−/− + Ang II group scored 55
# Protocol: as §1, §2, §3, §4
# [2] = Plasma drug content by HPLC; details: mouse plasma on day of sacrifice
# Protocol: as §2
# aneurysm = assay: Aneurysm incidence over time, ApoE−/−+Ang II AAA model; details: aneurysm = dissection or more than 50% increase in diameter; versus doxycycline and saline control
# Protocol: as §1, §2
# Aneurysm was defined as either the presence of dissection or more than 50% increase in diameter.
# AAA = assay: Aortic diameter by ultrasonography, ApoE−/−+Ang II AAA model; details: pretreatment 1 week before Ang II infusion, followed to 28 days; versus control and doxycycline
# Text: The ApoE^−/−+Ang II AAA model is well established and supported by current scientific literature. Mice genetically predisposed to hypercholesterolemia develop aneurysms when treated with angiotensin II. Aneurysms generally develop within the first week after pump implantation and share many important pathologic characteristics with human AAA disease. ApoE−/− mice used in this study were divided into different pretreatment groups: 1) Fluvastatin-MF; 2) Doxycycline-MD; 3) Irbesartan-MI; 4) Telmisartan-MT; 5) Control (water) and fed medicated chow or medicated drinking water 1 week prior to pump implantation. AngII (1000 ng·kg^−1 of body weight·min^−1) was infused subcutaneously via Alzet mini-osmotic pumps for 28 days. All mice were maintained on the medicated chow (MI & MT) or medicated drinking water (MF & MD) treatments which were delivered daily for a total of 28 days following pump implantation. In order to determine the effect of the various treatments on the progressive enlargement of the experimental AAAs the mice were followed with high frequency trans-abdominal ultrasound. Maximum aortic diameter was measured and recorded prior to pump implantation and then at 3, 7, 14, 21, and 28 days. All mice were sacrificed 28 days after pump implantation. Aortae were harvested and subjected to either histological analysis (Elastic Masson trichome, MAC2, CD31 and TUNEL staining) and analysis of mural gene expression. Plasma drug concentrations of experimental compounds were quantified on the day of sacrifice using high performance liquid chromatography (HPLC).
SMILES,Runx3 expression (Runx3),TNF-α expression (TNF-α),CCR5 expression (CCR5),ITGAL expression (ITGAL),Vav1 expression (Vav1),IL-7 expression (IL-7),MMP-8 expression (MMP-8),HMOX 1 expression (HMOX 1),Osteopontin expression (Osteopontin),Cathepsin B expression (Cathepsin B),CXCR4 expression (CXCR4),MAPK8 expression (MAPK8),Cybb expression (Cybb),Rac2 expression (Rac2),Tgfβ1 expression (Tgfβ1),CCR2 expression (CCR2),Fibronectin -1 expression (Fibronectin -1),MMP-12 expression (MMP-12),LOX expression (LOX),TIMP2 expression (TIMP2),further results
C[C@H]1c2cccc(O)c2C(=O)C2=C(O)[C@]3(O)C(=O)C(C(N)=O)=C(O)[C@@H](N(C)C)[C@@H]3[C@@H](O)[C@@H]21 [Doxycycline],+++ (3.1 to 10 = +++),++ (1.51 to 3 = ++),+++ (3.1 to 10 = +++),+++ (3.1 to 10 = +++),++ (1.51 to 3 = ++),− (0 to 1 = −),++++ (>10.1 = ++++),++++ (>10.1 = ++++),++++ (>10.1 = ++++),++ (1.51 to 3 = ++),++++ (>10.1 = ++++),− (0 to 1 = −),+++ (3.1 to 10 = +++),+++ (3.1 to 10 = +++),+++ (3.1 to 10 = +++),+++ (3.1 to 10 = +++),− (0 to 1 = −),++++ (>10.1 = ++++),− (0 to 1 = −),− (0 to 1 = −),Cathepsin S expression (Cathepsin S): +++ (3.1 to 10 = +++); CCL2 expression (CCL2): + (1.1 to 1.5 = +); ITGB2 expression (ITGB2): ++ (1.51 to 3 = ++); CSF1 expression (CSF1): − (0 to 1 = −); NFKb1 expression (NFKb1): − (0 to 1 = −); Total Score [1]: 53
CCCCC1=NC2(CCCC2)C(=O)N1Cc1ccc(-c2ccccc2-c2nnn[nH]2)cc1 [Irbesartan],− (0 to 1 = −),− (0 to 1 = −),− (0 to 1 = −),− (0 to 1 = −),− (0 to 1 = −),− (0 to 1 = −),++ (1.51 to 3 = ++),− (0 to 1 = −),++ (1.51 to 3 = ++),− (0 to 1 = −),− (0 to 1 = −),− (0 to 1 = −),− (0 to 1 = −),− (0 to 1 = −),− (0 to 1 = −),− (0 to 1 = −),− (0 to 1 = −),+++ (3.1 to 10 = +++),− (0 to 1 = −),− (0 to 1 = −),"Cathepsin S expression (Cathepsin S): − (0 to 1 = −); CCL2 expression (CCL2): − (0 to 1 = −); ITGB2 expression (ITGB2): − (0 to 1 = −); Plasma drug content [2]: lower plasma concentration; Inhibition of aneurysm development (aneurysm incidence) (aneurysm): effective in inhibiting aneurysm development; also recorded: inhibited aneurysm development well; Inhibition of aneurysm development/growth (aortic diameter) (AAA): effective in inhibiting/preventing aneurysm development; Down-regulation of genes involved in the pathophysiology of AAA ([1]; ApoE−/− + Ang II AAA model, summary of Table 2): down-regulating the expression of genes; Total Score [1]: 7"
